# Molecular target: T1, recombinant human secreted phospholipase A2 (Homo sapiens, UniProt P14555)
# T1 sequence (P14555 21-144): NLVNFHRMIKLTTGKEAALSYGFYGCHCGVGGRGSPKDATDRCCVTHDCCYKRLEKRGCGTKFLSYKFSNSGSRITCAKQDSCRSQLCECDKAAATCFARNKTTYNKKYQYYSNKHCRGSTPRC
# Assay: Chromogenic assay for inhibitors of recombinant human secreted phospholipase A2 (Assay Example 1)
# Format: biochemical
# Details: compounds of formula 2; diheptanoyl thio-PC substrate, pH 7.5, absorbance at 405 nm
# Description: The following chromogenic assay procedure was used to identify and evaluate inhibitors of recombinant human secreted phospholipase A2. The assay described herein has been adapted for high volume screening using 96 well microtiter plates. A general description of this assay method is found in the article, “Analysis of Human Synovial Fluid Phospholipase A2 on Short Chain Phosphatidylcholine-Mixed Micelles: Development of a Spectrophotometric Assay Suitable for a Microtiterplate Reader”, by Laure J. Reynolds, Lori L. Hughes, and Edward A Dennis, Analytical Biochemistry, 204, pp. 190-197, 1992 (the disclosure of which is incorporated herein by reference):
# Bovine Serum Albumin (fatty acid free) (1 g/L)
# (Sigma A-7030, product of Sigma Chemical Co. St. Louis Mo., USA) […]
# pH 7.5 (adjust with NaOH)
# Adjust pH to 4.5 with acetic acid
# 5,5′-dithiobis-2-nitrobenzoic acid
# Racemic Diheptanoyl Thio—PC racemic 1,2-bis(heptanoylthio)-1,2-dideoxy-sn-glycero-3-phosphorylcholine TRITON X-100™ prepare at 6.249 mg/ml in reaction buffer to equal […]
# TRITON X-100™ is a polyoxy ethylene non-ionic
# A measured volume of racemic dipheptanoyl thio PC supplied in chloroform at a concentration of 100 mg/ml is taken to dryness and redissolved in 10 millimolar TRITON X-100™ nonionic detergent aqueous solution. Reaction Buffer is added to the solution, then DTNB to give the Reaction Mixture.
# The reaction mixture thus obtained contains 1 mM diheptanoly thio-PC substrate, 0.29 mm Triton X-100™ detergent, and 0.12 mm DTMB in a buffered aqueous solution at pH 7.5.
# 1. Add 0.2 ml reaction mixture to all wells;
# 2. Add 10 ul test compound (or solvent blank) to appropriate wells, mix 20 seconds;
# 3. Add 50 nanograms of sPLA2 (10 microliters) to appropriate wells;
# 4. Incubate plate at 40° C. for 30 minutes;
# 5. Read absorbance of wells at 405 nanometers with an automatic plate reader.
# All compounds were tested in triplicate. Typically, compounds were tested at a final concentration of 5 ug/ml. […] Lack of color development at 405 nanometers evidenced inhibition. Compounds initially found to be active were reassayed to confirm their activity and, if sufficiently active, IC50 values were determined. […] In all cases, % inhibition measured at 405 nanometers generated by enzyme reactions containing inhibitors relative to the uninhibited control reactions was determined. Each sample was titrated in triplicate and result values were averaged for plotting and calculation of IC50 values. IC50 were determined by plotting log concentration versus inhibition values in the range from 10-90% inhibition.
row,Compound,IC50 [nM]
1,"NC(=O)COc1cccc2c1c1c(C(N)=O)cccc1n2Cc1ccccc1 [Compound 2a, [[5-Carbamoyl-9-(phenylmethyl)carbazol-4-yl]oxy]acetamide]",151
2,"CCNC(=O)COc1cccc2c1c1c(C(N)=O)cccc1n2Cc1ccccc1 [Compound 2b, [[5-Carbamoyl-9-(phenylmethyl)carbazol-4-yl]oxy]-N-(ethyl)acetamide]",273

# Same assay, conditions: compounds of formula 3; diheptanoyl thio-PC substrate, pH 7.5, absorbance at 405 nm
row,Compound,IC50 [nM]
1,"COC(=O)[C@H](CC(C)C)NC(=O)COc1cccc2c1c1c(C(N)=O)cccc1n2Cc1ccccc1 [Compound 3c, N-[[[5-Carbamoyl-9-(phenylmethyl)carbazol-4-yl]oxy]acetyl]-L-leucine Methyl Ester]",67.5
2,"COC(=O)CC[C@H](NC(=O)COc1cccc2c1c1c(C(N)=O)cccc1n2Cc1ccccc1)C(=O)OC [Compound 3e, N-[[[5-Carbamoyl-9-(phenylmethyl)carbazol-4-yl]oxy]acetyl]-L-glutamic Acid Dimethyl Ester]",709
3,"COC(=O)[C@H](CCSC)NC(=O)COc1cccc2c1c1c(C(N)=O)cccc1n2Cc1ccccc1 [Compound 3f, N-[[[5-Carbamoyl-9-(phenylmethyl)carbazol-4-yl]oxy]acetyl]-L-methionine Methyl Ester]",263
4,"COC(=O)CNC(=O)COc1cccc2c1c1c(C(N)=O)cccc1n2Cc1ccccc1 [Compound 3a, N-[[[5-Carbamoyl-9-(phenylmethyl)carbazol-4-yl]oxy]acetyl]glycine methyl ester]",383
5,"COC(=O)C[C@H](NC(=O)COc1cccc2c1c1c(C(N)=O)cccc1n2Cc1ccccc1)C(=O)OC [Compound 3d, N-[[[5-Carbamoyl-9-(phenylmethyl)carbazol-4-yl]oxy]acetyl]-L-aspartic Acid Dimethyl Ester]",513
6,"COC(=O)[C@H](C)NC(=O)COc1cccc2c1c1c(C(N)=O)cccc1n2Cc1ccccc1 [Compound 3b, N-[[[5-Carbamoyl-9-(phenylmethyl)carbazol-4-yl]oxy]acetyl]-L-alanine Methyl Ester]",205
7,"COC(=O)[C@H](Cc1ccccc1)NC(=O)COc1cccc2c1c1c(C(N)=O)cccc1n2Cc1ccccc1 [Compound 3g, N-[[[5-Carbamoyl-9-(phenylmethyl)carbazol-4-yl]oxy]acetyl]-L-phenylalanine Methyl Ester]",8600

# Same assay, conditions: compounds of formula 4; diheptanoyl thio-PC substrate, pH 7.5, absorbance at 405 nm
row,Compound,IC50 [nM]
1,"NC(=O)c1cccc2c1c1c(OCC(=O)N[C@@H](CC(=O)O)C(=O)O)cccc1n2Cc1ccccc1 [Compound 4d, N-[[[5-Carbamoyl-9-(phenylmethyl)carbazol-4-yl]oxy]acetyl]-L-aspartic Acid]",99.2
2,"NC(=O)c1cccc2c1c1c(OCC(=O)NCC(=O)O)cccc1n2Cc1ccccc1 [Compound 4a, N-[[[5-Carbamoyl-9-(phenylmethyl)carbazol-4-yl]oxy]acetyl]glycine]",118
3,"CSCC[C@H](NC(=O)COc1cccc2c1c1c(C(N)=O)cccc1n2Cc1ccccc1)C(=O)O [Compound 4f, N-[[[5-Carbamoyl-9-(phenylmethyl)carbazol-4-yl]oxy]acetyl]-L-methionine]",103
4,"NC(=O)c1cccc2c1c1c(OCC(=O)N[C@@H](CCC(=O)O)C(=O)O)cccc1n2Cc1ccccc1 [Compound 4e, N-[[[5-Carbamoyl-9-(phenylmethyl)carbazol-4-yl]oxy]acetyl]-L-glutamic Acid]",61.2
5,"CC(C)C[C@H](NC(=O)COc1cccc2c1c1c(C(N)=O)cccc1n2Cc1ccccc1)C(=O)O [Compound 4c, N-[[[5-Carbamoyl-9-(phenylmethyl)carbazol-4-yl]oxy]acetyl]-L-leucine]",16.1
6,"NC(=O)c1cccc2c1c1c(OCC(=O)N[C@@H](Cc3ccccc3)C(=O)O)cccc1n2Cc1ccccc1 [Compound 4g, N-[[[5-Carbamoyl-9-(phenylmethyl)carbazol-4-yl]oxy]acetyl]-L-phenylalanine]",324

# Source: patent US20030096854A1, “Substituted tricyclics” (priority 2002, published 2003)
